Article PMC12535076, “Neurotherapeutic effects of Vutiglabridin as a Paraoxonase-2 modulator in preclinical models of Parkinson’s disease” (Molecular Neurodegeneration, 2025)
Blank lines part the entries; values can stand above or below the compound they belong to.

How the values were obtained:
[1] = target: T1, MAO-B (Homo sapiens, UniProt P27338); test: ROS Glo based MAO-B enzyme activity assay; assay type: biochemical; conditions: read-out: IC50, MAO-B assay, ROS-Glo method
T1 sequence (P27338 1-520): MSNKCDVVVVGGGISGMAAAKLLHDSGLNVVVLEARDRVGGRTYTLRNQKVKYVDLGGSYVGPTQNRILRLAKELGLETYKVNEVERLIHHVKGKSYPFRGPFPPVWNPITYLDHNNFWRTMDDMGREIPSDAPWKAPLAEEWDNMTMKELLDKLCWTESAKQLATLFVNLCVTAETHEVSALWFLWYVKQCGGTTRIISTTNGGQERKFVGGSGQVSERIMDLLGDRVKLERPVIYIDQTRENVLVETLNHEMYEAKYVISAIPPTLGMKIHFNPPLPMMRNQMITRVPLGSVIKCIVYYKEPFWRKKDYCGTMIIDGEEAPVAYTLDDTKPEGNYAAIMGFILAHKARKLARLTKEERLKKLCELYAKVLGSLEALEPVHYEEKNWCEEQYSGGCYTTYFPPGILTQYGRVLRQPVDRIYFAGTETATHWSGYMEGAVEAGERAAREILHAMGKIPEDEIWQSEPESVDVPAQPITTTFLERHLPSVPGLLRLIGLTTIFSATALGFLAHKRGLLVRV
Description: An enzyme solution was prepared by diluting 10 µL of a 2.5 mg/mL MAO-A or MAO-B stock in 10 mL of 50 mM sodium phosphate buffer (pH 7.4). A substrate solution was prepared by diluting 200 µL of a 100 mM benzylamine (or tyramine) stock in 10 mL phosphate buffer to achieve a final concentration of 1 mM. For each 96-well plate experiment, 12.5 µL of a 1× H2O2 probe solution was added to 1 mL of the probe dilution buffer from the ROS Glo™ kit. Separately, 40 µL of cysteine and enhancer were diluted into 4 mL of Luciferin solution. In each well, 49 µL of the enzyme solution was dispensed, followed by 1 µL of the test compound, and incubated for 30 min. […] Next, 10 µL of the H2O2 probe solution was added and incubated for 15 min. […] Luminescence was subsequently recorded using a microplate luminescence reader (SpectraMax i3, Molecular Devices).

[2] = target: T2, MAO-A (Homo sapiens, UniProt P21397); test: ROS Glo based MAO-A enzyme activity assay; assay type: biochemical; conditions: printed as 'separate MAO-B assay' within the MAO-A panel (b); read-out: IC50, ROS-Glo method, panel (b)
T2 sequence (P21397 1-527): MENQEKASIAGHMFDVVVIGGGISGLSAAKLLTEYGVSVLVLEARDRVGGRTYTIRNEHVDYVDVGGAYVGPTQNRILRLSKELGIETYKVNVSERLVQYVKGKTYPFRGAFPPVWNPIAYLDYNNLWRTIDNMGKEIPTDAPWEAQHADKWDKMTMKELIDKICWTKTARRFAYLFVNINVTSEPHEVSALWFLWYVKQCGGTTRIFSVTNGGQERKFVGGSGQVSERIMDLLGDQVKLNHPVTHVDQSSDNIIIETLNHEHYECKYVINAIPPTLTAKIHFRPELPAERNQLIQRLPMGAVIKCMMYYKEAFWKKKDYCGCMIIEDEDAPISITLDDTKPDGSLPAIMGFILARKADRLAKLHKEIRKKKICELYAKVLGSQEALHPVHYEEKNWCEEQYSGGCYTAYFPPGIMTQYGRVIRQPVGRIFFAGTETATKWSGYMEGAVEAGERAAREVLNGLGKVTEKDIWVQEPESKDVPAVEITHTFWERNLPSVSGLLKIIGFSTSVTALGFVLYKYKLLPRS
Description: An enzyme solution was prepared by diluting 10 µL of a 2.5 mg/mL MAO-A or MAO-B stock in 10 mL of 50 mM sodium phosphate buffer (pH 7.4). A substrate solution was prepared by diluting 200 µL of a 100 mM benzylamine (or tyramine) stock in 10 mL phosphate buffer to achieve a final concentration of 1 mM. For each 96-well plate experiment, 12.5 µL of a 1× H2O2 probe solution was added to 1 mL of the probe dilution buffer from the ROS Glo™ kit. Separately, 40 µL of cysteine and enhancer were diluted into 4 mL of Luciferin solution. In each well, 49 µL of the enzyme solution was dispensed, followed by 1 µL of the test compound, and incubated for 30 min. Then, 49 µL of the substrate solution was added, and the reaction proceeded at 37 °C for 60 min. Next, 10 µL of the H2O2 probe solution was added and incubated for 15 min. Subsequently, 40 µL of a luciferin solution containing cysteine and an enhancer was added, followed by an additional 30-minute incubation at 37 °C. Luminescence was subsequently recorded using a microplate luminescence reader (SpectraMax i3, Molecular Devices).

[3] = target: T1, MAO-B; test: HRP/Amplex red based MAO-B enzyme activity assay; assay type: biochemical; conditions: read-out: IC50, MAO-B assay, HRP/AR method
Description: (§1) MAO-A or MAO-B enzyme solutions were prepared by diluting 10 µL of a 2.5 mg/mL MAO-A or MAO-B stock into 10 mL of 50 mM sodium phosphate buffer (pH 7.4). A substrate assay mixture was then prepared by combining benzylamine (for MAO-B) or tyramine (for MAO-A) from a 100 mM stock (200 µL in 10 mL phosphate buffer, final concentration 1 mM) with 100 µL of a 20 mM AR reagent stock (final concentration 0.1 mM) and 100 µL of a 200 U/mL HRP stock (final concentration 1 U/mL) in 10 mL phosphate buffer. […] Next, 50 µL of the substrate assay mixture was added, and the reaction was carried out at 37 °C for 60 min. The production of resorufin was quantified by fluorescence measurement (excitation at 540 nm and emission at 580 nm).

[4] = target: T2, MAO-A; test: HRP/Amplex red based MAO-A enzyme activity assay; assay type: biochemical; conditions: read-out: IC50, MAO-A assay, HRP/AR method
Description: as §1

[5] = tested on: MPTP-injected C57BL/6 mice; test: MPTP-injected sub-acute PD mouse model (pole test, rotarod, TH immunohistochemistry); assay type: in vivo
Description: Animals were allowed at least 1 week of acclimatization before being subjected to the study and were housed in a regulated environment with a 12-h/12-h light/dark cycle. Food and water were provided ad libitum. The animal experiment was carried out in accordance with the National Institutes of Health Guide for the Care and Use of Laboratory Animals (NIH Publications No. 80–23; revised 1996). All procedures for handling mice were carried out in accordance with “Principles of Laboratory Animal Care” and the Animal Care and Use guidelines of Kyung Hee University, Seoul, Korea (KHSASP-20-163).
MPTP was dissolved in distilled water and injected intraperitoneally for five days from day 10 of the 21-day experiment period. Vuti or rasagiline was administered via oral gavage for 21 days. Vehicles for both Vuti and MPTP (distilled water) were administered to all mice. Mice were randomly divided for all studies. For the first set of studies shown in Fig. 3, each group consisted of 5 animals.
To determine forelimb and hindlimb motor coordination and balance, we performed the rotarod test as described previously. Also, the pole test was performed to measure bradykinesia. For the rotarod test, the animals were pre-trained on the rotating bar of a rotarod unit set (LE 8500, Letica, Spain) on days 18 and 19 before the test on day 20. During pre-training, three trials per day were performed (5 rpm rotation speed on the first day, 15 rpm rotation speed on the second day). Mice were kept on the rotating bar (7.3-cm diameter) for 5 min on each trial. On day 20, the time spent on the rotating bar at 20 rpm, which was defined as the latent period, was recorded. Performance was recorded as 300 s if the latent period exceeded 300 s. Mice had at least 5 min of rest between trials to reduce stress and fatigue. Each animal underwent three test trials, and the mean of the test results was subjected to statistical analysis. For the pole test, mice were held on the top of the pole (diameter 8 mm, height 55 cm, with a rough surface). The time to land down and place four fee on the floor was recorded as the time for locomotion activity (T-LA).
On day 21, mice were anesthetized with sodium pentobarbital (50 mg/kg intraperitoneally) and transcardially perfused with saline containing 0.5% sodium nitrate and heparin (10 U/mL) and then fixed with 4% PFA in 0.1 M phosphate-buffer (PB, pH 7.2). Dissected brains were post-fixed overnight in buffered 4% PFA at 4 °C and stored in a 30% sucrose solution until they sank. Brains were cryosectioned into 30 μm thick coronal sections in a Cryostat (Microsystems AG, Leica, Wetzlar, Germany) and stored until use at 4℃ in a cryoprotectant (25% ethylene glycol, 25% glycerol, 0.2 M PB, and water). All sections were collected in six separate series and processed for immunostaining.
Free-floating brain sections were processed with the avidin-biotin peroxidase complex (ABC) complex (Vector Laboratories, Burlingame, CA, USA) method. Briefly, brain sections were incubated with primary rabbit anti-TH antibodies (1:1000; Pel-Freez Biologicals, Rogers, AR, USA) overnight at 4 °C, with biotinylated anti-rabbit IgG (1:400) for 1 h at room temperature, and then with the ABC solution (1:1:200) for 1 h at room temperature. The immunoperoxidase signals of TH was detected by incubating sections with 0.5 mg/ml 3,3′-diaminobenzidine (Sigma, St. Louis, MO, USA) in 0.1 M PB containing 0.003% H2O2. Stained brain sections were mounted on gelatin-coated slides and imaged under a bright-field microscope (Olympus Optical, Tokyo, Japan). TH-positivity in the ST was measured by the optical density of TH-positive fibers at x40 magnification using ImageJ software (National Institutes of Health, Bethesda, MD, USA). TH-positive cells in the SNpc in brain tissue Sect. (5 sections/series) were counted at x100 magnification as previously described. […]

[6] = MPTP mice, Vuti 1, 50, 100 mg/kg/day or rasagiline 0.1 mg/kg/day orally for 21 days

IC50 [1]: 15.4 µM | IC50 [2]: 12 µM | IC50 [3]: 7.29 µM | IC50 [4]: 26.8 µM
SMILES: CC1(C)C=Cc2c(ccc3c2OC[C@@H](c2ccc(O)cc2O)C3)O1 [Glabridin]

SMILES: CN1CC=C(c2ccccc2)CC1 [MPTP, 1-methyl-4-phenyl-1,2,3,6-tetrahydropyridine, reference compound]
latency time to reach the floor (T-LA) in the pole test ([5]; MPTP 30 mg/kg/day i.p. for 5 days, no drug, vs 5.2 ± 0.9 s vehicle-only): 9.6 ± 2.1 s | latency to fall in the rotarod test ([5]; MPTP 30 mg/kg/day i.p. for 5 days, no drug, vs 196.4 ± 77.3 s vehicle-only): 63.5 ± 34.5 s

SMILES: C#CCN[C@@H]1CCc2ccccc21 [rasagiline, Rasagiline, reference compound]
effect on T-LA in the pole test [5, 6]: significantly normalized | effect on latency to fall in the rotarod test [5, 6]: significantly normalized
